Test system: F7-40 (DNA, aptamer) CTTACGACCACCATGGGAATCGGGTGGCTTGGAGGTGCGT
Test: ITC
Conditions: 20 mM NaCl, 0.5 mM MgCl2; 10 mM Tris-HCl pH 7.4, 1% methanol, 23 °C

KD: 62.1 ± 4.9 µM
Compound: C=C[C@H]1CN2CC[C@H]1C[C@H]2[C@H](O)c1ccnc2ccc(OC)cc12

Source: paper PMC9976898 (2022)
